Experimental data published in patent US9598667B2, “Use of metal ions for modulation of protein glycosylation profiles of recombinant proteins” (AbbVie, Inc., priority 2013, dated 2017).

Key:
[1] = test system: N-glycan glycosylation profile of DVD-Ig (DVD 1) expressed in CHO cells; test: N-glycan oligosaccharide profile of DVD-Ig (DVD 1) from shake flask culture; format: cell-based, Chinese Hamster
Experimental: Sodium citrate was included to provide additional evidence that the impact to the oligosaccharide profile with the prior experiments was a result of the iron addition. All conditions were performed in triplicate.

[2] = test system: N-glycan glycosylation profile of Antibody 1 expressed in CHO cells; test: N-glycan oligosaccharide profile of Antibody 1 from shake flask culture (2-AB labelling, normal phase HPLC); settings: for galactosylation: Example 7
From the text: (§1) To test the effect of metal ions of protein glycosylation, recombinant Chinese Hamster Ovary (CHO) cell lines (CHO DUX-B11 origin based on a DHFR (dihydrofolate reductase) expression system) expressing two different humanized monoclonal antibodies (Antibody 1, Antibody 2) or a dual variable domain immunoglobulin (DVD-Ig) were shake flask cultured in chemically defined basal medium (CDBM) and chemically defined feed medium (CDFM) supplemented with selected iron compounds. The cell lines were serially expanded through separate seed train inoculums to generate enough cells for inoculation. All supplemented cultures were performed in triplicate unless otherwise indicated.
The glycosylation profile of the recombinantly expressed proteins was then determined using standard procedures. Approximately 200 μg of Protein A purified samples from Cell Lines 1 and 2 were then treated with N-glycanase at 37° C. overnight to remove the N-glycans from the protein. The protein was precipitated and the supernatant was taken for subsequent chemical derivatization of the reducing end of the released glycans with 2-aminobenzamide (2-AB) dye. Following the derivatization step, the excess labeled was removed using clean up cartridges and the samples were analyzed using normal phase HPLC with fluorescent detection. Mobile phase A was 100% acetonitrile and mobile phase B was 50 mM ammonium formate pH 4.4. The glycan were eluted from a polyamide column (Prozyme, Hayward, Calif.) using a shallow gradient. The labeled glycans were detected using a fluorescence detector with an excitation wavelength of 330 nm and an emission wavelength of 420 nm.
Concentrations of the respective iron compounds were chosen so as to minimize any potential adverse impacts on cell growth and productivity, but still facilitate a measurable impact on the glycoform profile. […] Cell culture process performance indicators were monitored and measured throughout the respective cultures. Viable cell density, cell viability, harvest titer, and harvest N-glycan oligosaccharide data was measured and reported.
By introducing iron to the culture via the feed medium, exposure to iron would be more gradual over the length of the culture. The impact to Antibody 1 was evaluated in triplicate shake flasks as described previously.
All evaluations were performed in triplicate in shake flasks with the cell line expressing Antibody 1.
The next set of experiments explored if iron transport into the cell or the galactose availability were the limiting factors. Recombinant transferrin (rTf) was added to triplicate shake flask cultures with the cell line expressing Antibody 1 with varying concentrations of ferric citrate. An independent experiment was performed with the same cell line to also determine if galactose supplementation in addition to iron and transferrin would enhance the galactosylation with triplicate shake flasks for each condition.

[3] = test system: CHO cell line expressing Antibody 2; test: Shake flask fedbatch culture performance, cell line expressing Antibody 2; format: cell-based, Chinese Hamster; settings: 0.1 or 1.0 mM in basal medium; vs unsupplemented control
From the text: as §1
Absolute concentrations were assigned with respect to reference standard calibration curves.
The unsupplemented control was performed in duplicate.

[4] = test system: N-glycan glycosylation profile of Antibody 1; test: N-glycan oligosaccharide profile of Antibody 1 in bioreactors; format: cell-based, Chinese Hamster; settings: pH 6.90, dissolved oxygen 40% air saturation, two independent experiments
Experimental: Prior experiments included iron supplementation in shake flask cultures. Experiments with the cell line expressing Antibody 1 and with a cell line expressing a different DVD-Ig (denoted DVD 2, also called ABT-122) than discussed previously were carried out to confirm the impact from iron supplements would be observed in bioreactors. Operating conditions were similar to shake flask experiments, but now included pH control at pH 6.90 and dissolved oxygen control at a setpoint of 40% air saturation. Antibody 1 bioreactors were run in triplicate with the exception of the 0.08 mM FC condition. DVD 2 bioreactors were run in duplicate.

[5] = Example 2, vs unsupplemented control

Molecule: O=C([O-])CC(O)(CC(=O)[O-])C(=O)[O-].[Na+].[Na+].[Na+] [Sodium citrate, reference compound]
- effect on oligosaccharide profile ([1]; 0.5 mM, vs unsupplemented control): no effect on the oligosaccharide profile

Molecule: O=C[C@H](O)[C@@H](O)[C@@H](O)[C@H](O)CO [galactose]
- galactosylation ([2]; supplemented with iron (ferric citrate)): increased galactosylation is observed overall
- dose dependence of galactosylation ([2]; Example 8, galactose supplementation with ferric citrate): dose-dependence is observed

Molecule: ferric citrate
- galactosylation ([1]; increased concentration (0.1, 1 mM)): increased galactosylation
- N-glycan glycoform profile (overall result) ([2]; Example 2, concentration dependence below 1.0 mM): very similar results to ferric nitrate
- increase of peak viable cell density [3]: 4 ×10^6 cells/mL
- increase in total NA1F and NA2F species [4]: dose-dependence effect

Molecule: ferrous sulfate
- increase in NA2F species [2, 5]: 3 fold
- increase in total NA1F species [2, 5]: 3 fold

Molecule: transferrin: Recombinant transferrin (rTf) added to shake flask cultures
- galactosylation ([2]; added with varying concentrations of ferric citrate, without galactose): no impact was observed to the galactosylation
